Reference: publication PMC8286815 (Biochemical Journal, 2021)
pEC50: −log10 of the molar value. Where two headings read alike, the source gives them in different places.

How the values were obtained:
[1] = system: SARS-CoV-2 in Vero E6 cells; experiment: Viral inhibition assay (N protein immunofluorescence); format: cell-based; conditions: for pEC50: read-out: EC50 antiviral activity against SARS-CoV-2
[2] = molecular target: T1, SARS-CoV-2 RdRp (nsp12/nsp7/nsp8) (Severe acute respiratory syndrome coronavirus 2, UniProt P0DTD1); experiment: FRET-based strand displacement assay (RdRp activity); format: biochemical; conditions: 100 nM RNA substrate, 300 µM of each NTP
T1 construct: added initiator Met before nsp12 (N); made in house; host or cells: Sf9 insect cells (Spodoptera frugiperda), baculovirus

influenza infection = conditions: treated mice; cited from earlier work
[3] = system: influenza A viruses in A549 cells; design: method as in PMID 26711748; conditions: different strains, read-out: EC50 suppression of replication of influenza A viruses; cited from earlier work
[4] = molecular target: T1, SARS-CoV-2 RdRp (nsp12/nsp7/nsp8); experiment: Gel-based polymerisation (primer-extension) assay; format: biochemical; conditions: compound at 50 µM, 30-min reaction, 300 nM RdRp, native PAGE
Vero E6 cells = experiment: Cell viability in the viral inhibition assay (DRAQ7 staining); conditions: DRAQ7 area, concentrations tested up to 300 µM
[5] = system: SARS-CoV-2 in Vero E6 cells; design: method as in Zeng et al. [46]; conditions: same protocol, ref Zeng et al. [46], read-out: EC50 against SARS-CoV-2; cited from earlier work
[6] = Severe acute respiratory syndrome coronavirus 2, Vero C1008, 22 h
[7] = IC50 (µM) + 0.01% Triton X-100, 150 nM RdRp, presence of 0.01% Triton X-100
[8] = IC50 (µM) No detergent, 150 nM RdRp, absence of Triton X-100
[9] = Severe acute respiratory syndrome coronavirus 2, Vero C1008, Vero E6 cells, MOI 0.5 PFU/cell, 22 h, area of viral plaques by N protein staining

| Structure (SMILES) | pEC50 [1, 6] | IC50 [2, 7] | IC50 [2, 8] | pEC50 [1, 9] | Inhibition of RNA duplex formation [4] | other results |
| --- | --- | --- | --- | --- | --- | --- |
| O=C1C(=O)N(Cc2ccc(Cl)c(Cl)c2)c2ccccc21 [MDK-83190] | 4.09 | – | – | – | – | – |
| OC[C@@H](O)[C@H]1NC[C@@H](O)[C@H]1O [1,4-Dideoxy-1,4-imino-D-mannitol] | – | – | – | – | – | IC50 (µM) No detergent ([2]; 150 nM RdRp, absence of Triton X-100): no cl ear i nhi bi ti; IC50 (µM) + 0.01% Triton X-100 ([2]; 150 nM RdRp, presence of 0.01% Triton X-100): no cl ear i nhi bi ti |
| CC1=NN(c2ccc(C(=O)O)cc2)C(=O)C1=Cc1ccc(-c2cc(C)c(C)cc2[N+](=O)[O-])o1 [C646] | – | 7.8 µM | 6.1 µM | 4.72 | inhibited RNA duplex formation almost completely | Toxicity in murine models of influenza infection (influenza infection): no associated toxicity; Viral replication in murine models of influenza infection (influenza infection): significant reduction in viral replication; pEC50 [3]: 4.80 |
| CCC(CC)COC(=O)[C@H](C)N[P@](=O)(OC[C@H]1O[C@@](C#N)(c2ccc3c(N)ncnn23)[C@H](O)[C@@H]1O)Oc1ccccc1 [Remdesivir] | – | – | – | 5.74 | – | inhibition at 0.5 µM ([1]; Severe acute respiratory syndrome coronavirus 2, Vero C1008, 0.5 µM, Vero E6 cells, read-out: Inhibition of viral infection as a single agent): < 10% |
| NC(=O)c1cc[n+](CC2=C(C(=O)O)N3C(=O)[C@@H](NC(=O)[C@@H](c4ccccc4)S(=O)(=O)[O-])[C@H]3SC2)cc1 [Cefsulodin] | 3.97 | 49 µM | 50 µM | – | partial inhibition | – |
| Nc1c(C(=O)O)c2nc3c(C(=O)O)cccc3oc-2cc1=O [Cinnabarinic Acid] | – | > 100 µM | > 100 µM | – | – | – |
| CC(C)C(C(=O)O)N1C(=O)/C(=C/c2ccc(Br)cc2)SC1=S (stereo not shown) [BH3I-1] | – | 13 µM | 14 µM | 4.11 | inhibited RNA duplex formation almost completely | – |
| O=C(O)c1ccc(-c2c[nH]c3ncc(-c4ccccc4)cc23)cc1C1CCCC1 [GSK-650394] | 5.12 | 29 µM | 31 µM | – | partial inhibition | Concentration at which cytotoxicity was seen (Vero E6 cells): 300 µM |
| Cc1ccc(C(=O)Nc2ccc(S(=O)(=O)O)c3cc(S(=O)(=O)O)cc(S(=O)(=O)O)c23)cc1NC(=O)c1cccc(NC(=O)Nc2cccc(C(=O)Nc3cc(C(=O)Nc4ccc(S(=O)(=O)O)c5cc(S(=O)(=O)O)cc(S(=O)(=O)O)c45)ccc3C)c2)c1 [Suramin] | – | 0.78 µM | 0.43 µM | – | inhibited RNA duplex formation almost completely | pEC50 [5]: 5.00 |
